Measurements published in US20090082260A1, “COMBINATION OF AN IMMUNOSUPPRESSANT AND A PPAR GAMMA AGONIST FOR THE TREATMENT OF AN UNDESIRABLE IMMUNE RESPONSE” (priority 2005, published 2009).

System: cardiac allograft
Test: Cardiac allograft rejection in rats: long term graft survival
Type: in vivo, rat
Settings: for Mean Survival Time, extended data set: Table 10b
Description: Animals were obtained from the Animal Resources Centre, Australia. The rats were allowed free access to food and water in a 12-hour light/12-hour dark cycled room. The experimental protocol was approved by the Committee on the Use of Live Animals in Teaching and Research, University of Hong Kong.
Six rats were used in each treatment group.
Recipient rats in TGA received hearts harvested from donor […] strain rats.
Graft survival was analysed using a chi-squared test.
Example 3 was extended to include a number of alternative treatment groups and additional numbers of animals in certain of the treatment groups already investigated.
Table 10b below summarises the graft survival rates, including both the original and supplemental data.

CN(CCOc1ccc(CC2SC(=O)NC2=O)cc1)c1ccccn1 (centres unmarked) [rosiglitazone, 5-[4-[2-(N-methyl-N-(2-pyridyl)amino)ethoxy]benzyl]thiazolidine-2,4-dione]
Graft survival compared with untreated subjects (TGE) (PPAR-gamma agonist alone at a high dose (TGF, 20 mg/kg/day)): does not show any notable difference
Graft survival compared with untreated subjects (TGE) (PPAR-gamma agonist alone at a medium dose (TGB, 5 mg/kg/day)): does not show any notable difference
Mean Survival Time (Table 10, TGA cyclosporin A 20 mg/kg/day i.p. 14 days, TGB rosiglitazone 5 mg/kg/day oral to day 120, TGC both, n=6): 15.8 days
Mean Survival Time, extended data set (TGA cyclosporin A 20 mg/kg/day i.p. 14 days, TGB rosiglitazone 5 mg/kg/day oral, TGC both): 15.8 days
Mean Survival Time, extended data set (TGF high dose rosiglitazone 20 mg/kg/day oral only, n=6): 18.8 days
